According to paper doi:10.1101/2025.01.31.635529v3 (biorxiv, 2025):

Molecular target: T1, PaAtg18 (Atg18) (Ogataea angusta, UniProt Q5QA94)
T1 sequence (Q5QA94 1-525): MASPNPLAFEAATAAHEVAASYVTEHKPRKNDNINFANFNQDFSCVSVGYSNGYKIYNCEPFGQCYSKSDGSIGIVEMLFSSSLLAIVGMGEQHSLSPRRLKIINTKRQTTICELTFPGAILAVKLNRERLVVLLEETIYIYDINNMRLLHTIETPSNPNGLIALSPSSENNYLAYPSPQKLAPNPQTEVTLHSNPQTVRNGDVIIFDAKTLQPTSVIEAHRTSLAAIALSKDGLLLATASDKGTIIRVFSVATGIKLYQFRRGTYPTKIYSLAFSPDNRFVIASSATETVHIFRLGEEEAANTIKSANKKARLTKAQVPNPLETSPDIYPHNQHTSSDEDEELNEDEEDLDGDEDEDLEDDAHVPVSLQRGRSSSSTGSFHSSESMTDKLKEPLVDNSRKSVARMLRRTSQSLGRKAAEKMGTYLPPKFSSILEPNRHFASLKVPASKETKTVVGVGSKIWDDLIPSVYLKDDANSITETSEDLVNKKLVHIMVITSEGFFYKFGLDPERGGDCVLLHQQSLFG
Test: isothermal titration calorimetry
Assay type: binding

Kd [µM]	Structure (SMILES)
85.6 ± 23.5	O=P(O)(O)O[C@H]1[C@H](O)[C@@H](O)[C@H](OP(=O)(O)O)[C@@H](OP(=O)(O)O)[C@H]1O [Ins(1,3,4)P3]
37.4 ± 1.3	O=P(O)(O)O[C@H]1[C@H](O)[C@@H](OP(=O)(O)O)[C@H](O)[C@@H](OP(=O)(O)O)[C@H]1O [Ins(1,3,5)P3]
116 ± 14	O=P(O)(O)O[C@@H]1[C@H](O)[C@H](O)[C@@H](OP(=O)(O)O)[C@H](OP(=O)(O)O)[C@H]1O [Ins(1,4,5)P3]
